# According to patent US5508424A, “4-arylisoindole analgesics” (Ortho Pharmaceutical Corporation, priority 1993, dated 1996):
# Tested on: Acetylcholine-Bromide Induced Abdominal Constriction
# Test: Mouse Acetylcholine Bromide-Induced Abdominal Constriction Assay
# Format: in vivo
# Conditions: Mus musculus, 0.5 h; @ 3 mpk/po; acetylcholine bromide 5.5 mg/kg i.p. 30 min after drug; % analgesia
# Protocol: Mouse Acetylcholine Bromide-Induced Abdominal Constriction Assay
# The mouse acetylcholine-induced abdominal constiction assay, as described by Collier et al. in Brit. J. Pharmacol. Chem. Ther., 32: 295-310, 1968, with minor modifications was used to assess analgesic potency of the compounds of formula (I). The test drugs or appropriate vehicle were administered orally (p.o.) and 30 minutes later the animal received an intraperitoneal (i.p.) injection of 5.5 mg/kg acetylcholine bromide (Matheson, Coleman and Bell, East Rutherford, N.J.). The mice were then placed in groups of three into glass bell jars and observed for a ten minute observation period for the occurrence of an abdominal constriction response (defined as a wave of constriction and elongation passing caudally along the abdominal wall, accompanied by a twisting of the trunk and followed by extension of the hind limbs). The percent inhibition of this response to a nociceptive stimulus (equated to % analgesia) was calculated as follows: The % Inhibition of response, i.e., % analgesia is equal to the difference between the No. of control animals response and the No. of drug-treated animals response times 100 divided by the No. of control animals responding.
# At least 15 animals were used for control and in each of the drug treated groups. At least three doses were used to determine each dose response curve and ED50 (that dose which would produce 50% analgesia). The ED50 values and their 95% fiducial limits were determined by a computer assisted probit analysis.
row,SMILES,inhibition in vivo at 3 mg/kg
1,CN1C[C@H]2CCC[C@H](c3ccc(C(F)(F)F)cc3)[C@@H]2C1 (relative stereo) [Cp-17],33%

# Same assay, conditions: Mus musculus, 0.5 h; @ 30 mpk/po; acetylcholine bromide 5.5 mg/kg i.p. 30 min after drug; % analgesia
row,SMILES,inhibition in vivo at 30 mg/kg
1,COc1cccc([C@@H]2CCC[C@@H]3CN(Cc4ccccc4)C[C@H]32)c1 (relative stereo) [Cp-6],13.3%
2,FC(F)(F)c1ccc([C@H]2CCC[C@@H]3CN(CCC(c4ccccc4)c4ccccc4)C[C@H]32)cc1 (relative stereo) [Cp-22],13.3%
3,COc1cccc([C@@H]2CCC[C@H]3CN(C)C[C@H]32)c1OC (relative stereo) [Cp-8],78.8%
4,CN1C[C@@H]2CCC[C@@H](c3ccc(Br)cc3)[C@@H]2C1 (relative stereo) [Cp-34],100%
5,COc1cccc([C@@H]2CCC[C@H]3CN(C)C[C@H]32)c1 (relative stereo) [Cp-1],30 to 40%
6,CN1C[C@@H]2CCC[C@H](c3ccc(Cl)c(Cl)c3)[C@@H]2C1 (relative stereo) [Cp-46],100%
7,CCCCN1CC2CCCC(c3cccc(C(F)(F)F)c3)C2C1 (stereo not shown) [Cp-18],66.7%

# Same assay, conditions: Mus musculus; po; dose producing 50% analgesia, probit analysis; read-out: ED50
row,SMILES,ED50
1,"Cc1cccc([C@@H]2CCC[C@@H]3CN(C)C[C@H]32)c1 (relative stereo) [Cp-24, 3aα,7aβ Octahydro-2-methyl-4α-(3-methylphenyl)-1H-isoindole Monofumarate]",23.6 mg/kg
2,CN1C[C@H]2CCC[C@@H](c3ccc(C(F)(F)F)cc3)[C@@H]2C1 (relative stereo) [Cp-16],4.6 mg/kg
3,CN1C[C@H]2CCC[C@H](c3ccc(Cl)c(Cl)c3)[C@@H]2C1 (relative stereo) [Cp-14],2.8 mg/kg
4,"CN1C[C@@H]2CCC[C@H](c3ccc(Br)cc3)[C@@H]2C1 (relative stereo) [Cp-44, 4β-bromophenyl-2-methyl-3aα,7aα-octahydro-1H-isoindole]",9.15 mg/kg
5,"CN1C[C@H]2CCC[C@@H](c3cccc(C(F)(F)F)c3)[C@@H]2C1 (relative stereo) [Cp-7, 3aα, 4α,7aβ-Octahydro-2-methyl-4-(3-trifluoromethylphenyl)-1H-isoindole Monofumarate]",7.46 mg/kg
6,CN1C[C@H]2CCC[C@@H](c3ccc(Cl)c(Cl)c3)[C@@H]2C1 (relative stereo) [Cp-15],7 mg/kg
7,CN1C[C@H]2CCC[C@@H](c3ccccc3)[C@@H]2C1 (relative stereo) [Cp-13],8.35 mg/kg
8,"Clc1ccc([C@H]2CCC[C@H]3CNC[C@H]32)cc1Cl (relative stereo) [Cp-35, 4β-(3,4-dichlorophenyl)-3aα,7aα-octahydro-1H-isoindole]",9.63 mg/kg
9,CN1C[C@@H]2CCC[C@H](c3ccccc3)[C@@H]2C1 (relative stereo) [Cp-43],4.9 mg/kg

# Same assay, conditions: po; dose producing 50% analgesia, probit analysis
row,SMILES,ED50
1,"Cc1cccc([C@@H]2CCC[C@@H]3CN(C)C[C@@H]32)c1.O=C(O)/C=C/C(=O)O [Cp-24+, (+)3aα,4α,7aβ Octahydro-2-methyl-4-(3-methylphenyl)-1H-isoindole Monofumarate]",21.6 mpk
2,"Cc1cccc(C2CCCC3CN(C)CC32)c1.O=C(O)/C=C/C(=O)O (single isomer, unassigned; (-)) [Cp-24-, (-)3aα,7aβ Octahydro-2-methyl-4α-(3-methylphenyl)-1H-isoindole Monofumarate]",24.9 mpk
